The values below come from ChEMBL document CHEMBL1201862, “PubChem BioAssay data set” (2004).

Among the test systems are ACHN; CCRF-CEM; OVCAR-3; SNB-19; NCI/ADR-RES; NCI-H460; HOP-92; SR; T47D; NCI-H23; A549; SF-539; SN12C; MCF7; SK-OV-3; OVCAR-5; SW-620; KM12; HL-60.
Assay in all cases: growth of human tumour cells (NCI), 48 h

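Cultured in 96-well plates, cells were exposed to test compound for 48 hours across five concentrations. Abbreviation: GI50, concentration required for 50% inhibition of growth.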 Active and inactive are the calls of the source. Rule as the data show it: active = GI50 up to about 1.1 µM and inactive = higher.

Turning to `Cc1[nH]c2ccccc2c1/C=N/NC(=O)c1cccc(I)c1`, the GI50 in the test with ACHN was 26.8 µM (inactive); in the test with CCRF-CEM, 26 µM (inactive); in the test with OVCAR-3 it was 20.7 µM (inactive); with SNB-19, 29 µM (inactive); in the test with NCI/ADR-RES it was 20.3 µM (inactive); with NCI-H460, 17.1 µM (inactive). Also, the GI50 in the test with HOP-92 is 14.4 µM (inactive); in the test on SR, 17.9 µM (inactive); with T47D, 14.8 µM (inactive); in the test with NCI-H23 it was 19.1 µM (inactive); with A549, 29.2 µM (inactive); in the test with SF-539, 18.8 µM (inactive). Further, the GI50 is 30.2 µM (inactive) with SN12C; 19.5 µM (inactive) in the test with MCF7; 32.2 µM (inactive) with SK-OV-3; 25.1 µM (inactive) in the test on OVCAR-5; 29 µM (inactive) with SW-620; 16.3 µM (inactive) with KM12. The GI50 in the test on HL-60 is 26.9 µM (inactive).
For `Nc1ncnc2c1ncn2[C@@H]1O[C@H](COC(c2ccccc2)(c2ccccc2)c2ccccc2)[C@@H](OC(=S)Oc2ccccc2)[C@@H]1F`, the GI50 in the test with ACHN is 10.7 µM (inactive); in the test on CCRF-CEM it was 2.5 µM (inactive); in the test on OVCAR-3, 4.55 µM (inactive); in the test on SNB-19 it was 11.5 µM (inactive); with NCI/ADR-RES, 4.16 µM (inactive); in the test on NCI-H460 it was 13.1 µM (inactive). The GI50 in the test with HOP-92 was 8.43 µM (inactive); with SR, 2.72 µM (inactive); in the test on T47D it was 8.2 µM (inactive); in the test with NCI-H23 it was 3.94 µM (inactive); in the test with A549 it was 15 µM (inactive); in the test with SF-539, 8.99 µM (inactive). Further, the GI50 is 4.46 µM (inactive) in the test on SN12C; 3.82 µM (inactive) in the test on MCF7; 14.1 µM (inactive) in the test on SK-OV-3; 19.1 µM (inactive) in the test with OVCAR-5; 4.47 µM (inactive) in the test on SW-620; 4.72 µM (inactive) in the test with KM12. The GI50 in the test with HL-60 is 3.18 µM (inactive).
Regarding `Cc1cn(C2C=CC(COP(=O)(OCc3ccc([N+](=O)[O-])o3)N(C)CCCCCl)O2)c(=O)[nH]c1=O` (stereo not given), the GI50 is 15.3 µM (inactive) in the test with ACHN; 5.43 µM (inactive) in the test on CCRF-CEM; 1.75 µM (inactive) in the test with OVCAR-3; 6.58 µM (inactive) in the test with SNB-19; 33.8 µM (inactive) in the test on NCI/ADR-RES; 10 µM (inactive) in the test on NCI-H460. For the same compound, the GI50 is 1.95 µM (inactive) in the test with HOP-92; 1.89 µM (inactive) in the test on SR; 1.57 µM (inactive) with T47D; 3.05 µM (inactive) in the test on NCI-H23; 10.9 µM (inactive) in the test on A549; 3.72 µM (inactive) in the test on SF-539. In addition, the GI50 with SN12C is 10.8 µM (inactive); in the test on MCF7, 4.99 µM (inactive); with SK-OV-3 it was 11.7 µM (inactive); in the test on OVCAR-5, 15.6 µM (inactive); with SW-620 it was 10.1 µM (inactive); with KM12 it was 6.68 µM (inactive). The GI50 with HL-60 is 9.31 µM (inactive).
In the case of `Cc1ccc(SCC(OCn2cnc3c(Cl)nc(N)nc32)[C@H](C)F)cc1` (stereo not given in full), the GI50 with ACHN is 37.5 µM (inactive); in the test with CCRF-CEM it was 39.1 µM (inactive); with OVCAR-3, > 100 µM (inactive); with SNB-19, > 100 µM (inactive); in the test with NCI/ADR-RES it was 30.1 µM (inactive); in the test on NCI-H460, 78.2 µM (inactive). The GI50 was 63.7 µM (inactive) with HOP-92; 28.2 µM (inactive) in the test on SR; 71.1 µM (inactive) in the test on T47D; 50.9 µM (inactive) in the test with NCI-H23; 69.5 µM (inactive) in the test with A549; > 100 µM (inactive) in the test with SF-539. Besides, the GI50 was 43.7 µM (inactive) in the test on SN12C; 29.9 µM (inactive) with MCF7; > 100 µM (inactive) in the test on SK-OV-3; > 100 µM (inactive) in the test with OVCAR-5; > 100 µM (inactive) in the test with SW-620; 81.8 µM (inactive) in the test with KM12. For the same compound, the GI50 with HL-60 is 28.3 µM (inactive).
With `CCC(NC(C)c1ccccc1)C(O)c1ccc(OCc2ccccc2)c(OCc2ccccc2)c1` (stereo not given), the GI50 in the test with ACHN was 18 µM (inactive); in the test on CCRF-CEM it was 14.2 µM (inactive); in the test on OVCAR-3, 12 µM (inactive); in the test on SNB-19, 14.5 µM (inactive); in the test with NCI/ADR-RES, 15.8 µM (inactive); in the test with NCI-H460 it was 15.1 µM (inactive). Besides, the GI50 in the test on HOP-92 was 5.74 µM (inactive); with SR, 2.47 µM (inactive); with T47D it was 15.1 µM (inactive); in the test on NCI-H23, 16.4 µM (inactive); in the test on A549, 16 µM (inactive); in the test on SF-539, 16.8 µM (inactive). Further, the GI50 with SN12C was 15.1 µM (inactive); in the test on MCF7, 14.3 µM (inactive); in the test on SK-OV-3, 15.5 µM (inactive); with OVCAR-5, 13.1 µM (inactive); in the test with SW-620 it was 4.57 µM (inactive); in the test on KM12, 5.81 µM (inactive). For the same compound, the GI50 with HL-60 was 13.8 µM (inactive).
Consider `c1cc(-c2ccc(-c3ccc(C4=NCCCN4)cc3)o2)ccc1C1=NCCCN1`, for which the GI50 is > 100 µM (inactive) with ACHN; > 100 µM (inactive) in the test on CCRF-CEM; > 100 µM (inactive) in the test on OVCAR-3; 52.6 µM (inactive) with SNB-19; 76.7 µM (inactive) in the test on NCI/ADR-RES; 14.6 µM (inactive) with NCI-H460. Besides, the GI50 with HOP-92 was 32 µM (inactive); with SR, > 100 µM (inactive); with T47D, 59.7 µM (inactive); in the test on NCI-H23, 46 µM (inactive); in the test with A549, 8.2 µM (inactive); with SF-539, 87.5 µM (inactive). Besides, the GI50 is 4.18 µM (inactive) with SN12C; 88.7 µM (inactive) in the test on MCF7; > 100 µM (inactive) in the test on SK-OV-3; > 100 µM (inactive) in the test with OVCAR-5; 82.2 µM (inactive) in the test with SW-620; 43.7 µM (inactive) in the test on KM12. The GI50 in the test on HL-60 was > 100 µM (inactive).
`C/C(CC(O)(C(F)(F)F)C(F)(F)F)=N\O`: the GI50 in the test on ACHN, with CCRF-CEM, with OVCAR-3, with SNB-19, with NCI/ADR-RES and in the test with NCI-H460 was > 10 µM (inactive) each time. Also, the GI50 in the test on HOP-92, in the test with SR, in the test with T47D, with NCI-H23, in the test with A549 and in the test with SF-539 was > 10 µM (inactive) in each case. Moreover, the GI50 with SN12C, in the test on MCF7, in the test on SK-OV-3, in the test on OVCAR-5, in the test on SW-620 and in the test with KM12 was > 10 µM (inactive) in each case. The GI50 with HL-60 was > 10 µM (inactive).
Regarding `CCN(CC)c1nc(NC2CCCCC2)c2nc(N(CC)CC)nc(NC3CCCCC3)c2n1`, the GI50 with ACHN, in the test on CCRF-CEM, in the test on OVCAR-3, with SNB-19, in the test on NCI/ADR-RES and in the test on NCI-H460 was > 100 µM (inactive) throughout. The GI50 was 38.7 µM (inactive) in the test with HOP-92; > 100 µM (inactive) with SR; > 100 µM (inactive) in the test on T47D; > 100 µM (inactive) with NCI-H23; > 100 µM (inactive) with A549; 29.5 µM (inactive) in the test with SF-539. Besides, the GI50 in the test on SN12C, with MCF7, with SK-OV-3, in the test on OVCAR-5, in the test on SW-620 and with KM12 was > 100 µM (inactive) in each case. Moreover, in the test with HL-60, the GI50 was > 100 µM (inactive).
Consider `COc1ccc(NS(=O)(=O)c2ccc(NC(NC(=O)CC(C)C)(C(F)(F)F)C(F)(F)F)cc2)nn1`, for which the GI50 with ACHN, in the test with CCRF-CEM, in the test on OVCAR-3, in the test with SNB-19, with NCI/ADR-RES and with NCI-H460 was > 100 µM (inactive) in each case. The GI50 in the test with HOP-92, in the test on SR, in the test with T47D, in the test with NCI-H23, in the test with A549 and with SF-539 was > 100 µM (inactive) each time. The GI50 in the test on SN12C, in the test with MCF7, in the test on SK-OV-3, with OVCAR-5, in the test with SW-620 and in the test with KM12 was > 100 µM (inactive) in each case. For the same compound, in the test with HL-60, the GI50 is > 100 µM (inactive).
Take `COc1cc2c(cc1C)NC(=O)/C2=C/c1c(Cl)[nH]c2cc(C)c(OC)cc12`: the GI50 is 2.25 µM (inactive) in the test on ACHN; 0.458 µM (active) with CCRF-CEM; 1.94 µM (inactive) in the test on OVCAR-3; 4.63 µM (inactive) with SNB-19; 3.19 µM (inactive) in the test with NCI/ADR-RES; 0.774 µM (active) in the test with NCI-H460. The GI50 in the test with HOP-92 was 10.3 µM (inactive); with SR it was 0.428 µM (active); in the test with T47D, 2.23 µM (inactive); with NCI-H23, 1.91 µM (inactive); in the test with A549, 4.55 µM (inactive); with SF-539, 0.395 µM (active). Also, the GI50 in the test with SN12C was 1.86 µM (inactive); in the test with MCF7 it was 1.4 µM (inactive); in the test on SK-OV-3, 1.3 µM (inactive); in the test with OVCAR-5, 7.78 µM (inactive); in the test with SW-620 it was 3.64 µM (inactive); in the test with KM12 it was 4.22 µM (inactive). Also, in the test with HL-60, the GI50 was 0.187 µM (active).
